Converted amounts (≈) assume the structure as drawn. Read-outs that look alike come from different tables or passages of the source.
Assay: Equilibrium solubility of crystal forms by UV-Vis spectrophotometry (279 nm)
Assay type: physicochemical
Excerpt: The specific operation was as follows: take samples of five new and original crystalline forms after reaching the dissolution equilibrium, filter them with 0.22 μm filter membrane, take appropriate amount of filtrate, according to the UV-Vis spectrophotometric method (Chinese Pharmacopoeia 2020 edition), determine the absorbance value at the wavelength of 279 nm, and substitute them into the standard curve to obtain the solubility of five new and original crystalline forms, as shown in Table 1.

[1] = pH = 7.0 aqueous solution (deionized water)

| solubility (pH = 1.2 hydrochloric acid) | solubility (pH = 6.8 PBS) | solubility [1] | solubility (pH = 7.4 PBS) | solubility (PBS, pH 6.8, aqueous buffer, thermodynamic from solid, pH = 6.8 PBS, read-out: solubility) | solubility (PBS, pH 7.4, aqueous buffer, thermodynamic from solid, pH = 7.4 PBS, read-out: solubility) | solubility (deionized water, pH 7, water, thermodynamic from solid, pH = 7.0 aqueous solution (deionized water), read-out: solubility) | solubility (hydrochloric acid solution, pH 1.2, simulated gastric fluid, thermodynamic from solid, pH = 1.2 hydrochloric acid, read-out: solubility) | Compound |
| --- | --- | --- | --- | --- | --- | --- | --- | --- |
| 76.01 mg/mL (≈ 213 mM) | 36.12 mg/mL (≈ 101 mM) | 12.64 mg/mL (≈ 35.4 mM) | 37.51 mg/mL (≈ 105 mM) |  |  |  |  | Cn1c(=O)cc(N2CCC[C@@H](N)C2)n(Cc2cc(F)ccc2C#N)c1=O [TRE-V, 2-[[6-[(3R)-3-aminopiperidin-1-yl]-3-methyl-2,4-dioxopyrimidin-1-yl]methyl]-4-fluorobenzonitrile] |
| 73.49 mg/mL (≈ 206 mM) | 35.05 mg/mL (≈ 98.1 mM) | 19.56 mg/mL (≈ 54.7 mM) | 35.94 mg/mL (≈ 101 mM) |  |  |  |  | Cn1c(=O)cc(N2CCC[C@@H](N)C2)n(Cc2cc(F)ccc2C#N)c1=O [TRE-IV, 2-[[6-[(3R)-3-aminopiperidin-1-yl]-3-methyl-2,4-dioxopyrimidin-1-yl]methyl]-4-fluorobenzonitrile] |
|  | 15.46 mg/mL (≈ 43.3 mM) | 3.40 mg/mL (≈ 9.51 mM) | 12.94 mg/mL (≈ 36.2 mM) |  |  |  |  | Cn1c(=O)cc(N2CCC[C@@H](N)C2)n(Cc2cc(F)ccc2C#N)c1=O [original crystal form, 2-[[6-[(3R)-3-aminopiperidin-1-yl]-3-methyl-2,4-dioxopyrimidin-1-yl]methyl]-4-fluorobenzonitrile, reference compound] |
| 39.76 mg/mL (≈ 111 mM) | 35.90 mg/mL (≈ 100 mM) | 14.93 mg/mL (≈ 41.8 mM) | 28.26 mg/mL (≈ 79.1 mM) |  |  |  |  | Cn1c(=O)cc(N2CCC[C@@H](N)C2)n(Cc2cc(F)ccc2C#N)c1=O [TRE-III, 2-[[6-[(3R)-3-aminopiperidin-1-yl]-3-methyl-2,4-dioxopyrimidin-1-yl]methyl]-4-fluorobenzonitrile] |
|  |  |  |  | 34.2 mg/mL (≈ 95.8 mM) | 28.6 mg/mL (≈ 80 mM) | 13.2 mg/mL (≈ 36.9 mM) | 54 mg/mL (≈ 151 mM) | Cn1c(=O)cc(N2CCC[C@@H](N)C2)n(Cc2cc(F)ccc2C#N)c1=O [TRE-I, 2-[[6-[(3R)-3-aminopiperidin-1-yl]-3-methyl-2,4-dioxopyrimidin-1-yl]methyl]-4-fluorobenzonitrile] |
| 45.91 mg/mL (≈ 128 mM) | 40.01 mg/mL (≈ 112 mM) | 15.98 mg/mL (≈ 44.7 mM) | 37.32 mg/mL (≈ 104 mM) |  |  |  |  | Cn1c(=O)cc(N2CCC[C@@H](N)C2)n(Cc2cc(F)ccc2C#N)c1=O [TRE-II, 2-[[6-[(3R)-3-aminopiperidin-1-yl]-3-methyl-2,4-dioxopyrimidin-1-yl]methyl]-4-fluorobenzonitrile] |
